# Measurements from patent publication US20030092004A1 (priority 2001, published 2003).
# “Also recorded” adds a separate entry of the source. Like-named read-outs stand apart in the source and are kept apart here.
# What was measured:
# NR1/NR3A receptors = NR1/NR3A receptors (Rattus norvegicus, UniProt P35439+Q9R1M7); assay: Two-electrode voltage recording of glycine-evoked currents in oocytes injected with NR1 and NR3A subunits
# Description: Microinjection of oocytes and electrophysiological recordings were performed as follows. Physiological and pharmacological properties of NMDA receptor subunits were characterized in the X. laevis oocyte expression system. […] X. laevis oocytes were harvested and defolliculated by digestion with collagenase (2 mg/ml) for 2 hrs. Twenty to 40 ng of cRNA were injected into each oocyte using glass pipettes with a tip size of 20-40 μm in diameter. Electrophysiological recordings were performed from whole oocytes 2-7 days after injection using a dual-electrode voltage-clamp amplifier (Model OC-725A, Warner Instrument, Hamden, Conn.). Micropipettes were filled with 3M KCl. The bath solution contained 115 mM NaCl, 2.5 mM KCl, 1.5 mM BaCl2, and 10 mM Hepes at pH 7.4. Drugs were applied to oocytes via a rapid perfusion system. Data were collected at 2.2 to 11.1 Hz at room temperature using the MacLab/4e A/D converter (AD Instruments, Mountain View, Calif.). Data analysis was performed using the programs Chart (AD Instruments, Mountain View, Calif.) and Microsoft Excel.
# NR1/NR3B receptors = NR1/NR3B receptors (Rattus norvegicus, UniProt P35439+Q8VHN2); assay: Two-electrode voltage-clamp recording of whole-cell currents in Xenopus oocytes injected with NR1 and NR3B cRNA; type: cell-based; conditions: for effect on glycine-evoked NR1/NR3B currents on co-application: doses maximally effective at classical NMDARs
# Sequence of NR1/NR3B receptors (Q8VHN2 25-1002, other chains not shown): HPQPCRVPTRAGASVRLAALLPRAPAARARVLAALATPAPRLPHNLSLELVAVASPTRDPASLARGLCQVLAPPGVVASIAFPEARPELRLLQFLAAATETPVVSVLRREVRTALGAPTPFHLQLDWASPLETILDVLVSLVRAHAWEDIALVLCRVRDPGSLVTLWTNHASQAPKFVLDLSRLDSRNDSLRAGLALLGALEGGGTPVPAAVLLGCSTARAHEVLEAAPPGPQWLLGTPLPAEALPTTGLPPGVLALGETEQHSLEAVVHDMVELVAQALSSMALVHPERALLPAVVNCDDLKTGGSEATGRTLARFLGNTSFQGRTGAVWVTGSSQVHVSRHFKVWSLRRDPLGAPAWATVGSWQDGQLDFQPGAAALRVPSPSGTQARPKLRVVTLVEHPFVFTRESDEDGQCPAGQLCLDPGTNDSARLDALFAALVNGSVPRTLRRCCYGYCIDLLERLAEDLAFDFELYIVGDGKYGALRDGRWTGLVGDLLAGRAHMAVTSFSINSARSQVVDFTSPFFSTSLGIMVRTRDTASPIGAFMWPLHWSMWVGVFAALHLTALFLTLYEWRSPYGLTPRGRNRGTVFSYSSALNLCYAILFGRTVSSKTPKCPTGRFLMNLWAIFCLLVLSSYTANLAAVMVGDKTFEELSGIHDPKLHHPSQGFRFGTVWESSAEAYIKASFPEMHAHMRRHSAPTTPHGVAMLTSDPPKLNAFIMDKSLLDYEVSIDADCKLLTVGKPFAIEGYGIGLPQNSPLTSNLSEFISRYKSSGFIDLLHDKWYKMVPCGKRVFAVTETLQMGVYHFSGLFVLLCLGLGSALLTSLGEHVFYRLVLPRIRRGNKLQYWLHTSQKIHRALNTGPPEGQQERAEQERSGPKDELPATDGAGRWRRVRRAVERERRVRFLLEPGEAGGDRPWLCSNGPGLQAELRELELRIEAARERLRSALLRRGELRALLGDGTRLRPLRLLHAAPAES
# Description: Currents were recorded in 1.5 mM Ba^2+ Ringers' solution from oocytes injected with 2 ng of NR1 cRNA and 12 ng of NR3B cRNA.
# NR3B cRNA for oocyte expression was produced as follows. The full-length NR3B cDNA was constructed in the pCMV6-XL4 vector (OriGene Technologies, Inc., Rockville, Md.), which contains a T7 promoter upstream of the cDNA insert. […] The truncated cRNA could potentially encode a dominant negative form of NR3B. Therefore, a new vector was constructed to facilitate production of exclusively full-length NR3B cRNA. Construction of this vector proceeded as follows. NR1 cDNA was excised from the pGEM-HE/NR1 vector (a gift from S. F. Heinemann) by digestion with EcoRI and the two ends of the truncated pGEM-HE vector were re-ligated. The truncated pGEM-HE vector retained the 5′ and 3′ UTRs of the X. laevis β-globin gene for high level protein expression in frog oocytes. The SfoI-KpnI fragment of truncated pGEM-HE, which contains the T7 promoter, was replaced with the PvuII-KpnI fragment of pBluescript II KS, which contains the T3 promoter, to generate pJC32. The abbreviated multiple cloning site of pJC32 was then replaced with the multiple cloning site from pcDNA3.1(+) (Invitrogen, Carlsbad, Calif.) by ligating the 102 bp PmeI fragment of pcDNA3.1(+) into the 3 kb SmaI-EcoRV fragment of pJC32 to generate pJC34. Oligos encoding restriction sites for AscI, PacI, and PmeI (ctagc[…]g (SEQ ID NO:52) and ctagc[…]g (SEQ ID NO:53)) were annealed and ligated into the NheI site of pJC34. The resulting vector, pJC39, contains three rare restriction sites downstream of the multiple cloning site to facilitate linearization prior to in vitro transcription using T3 RNA polymerase.
# The full-length NR3B (B4 form) cDNA was then excised from pCMV6-XL4 by digestion with EcoRI and XbaI, and the 3.2 kb fragment was ligated into EcoRI/XbaI-digested pJC39. The resulting vector, pJC42, was linearized with PmeI, and in vitro transcription was performed using the mMessage mMachine T3 kit (Ambion, Inc., Austin, Tex.) according to the manufacturer's instructions.
# Micropipettes were filled with 3M KCl.
# NR1/NR2A receptors = NR1/NR2A receptors (Rattus norvegicus, UniProt P35439+Q00959); assay: Two-electrode voltage-clamp recording of NMDA plus glycine-evoked currents in Xenopus oocytes expressing NR1/NR2A; type: cell-based; conditions: for effect on NR1/NR2A currents: 100 μM NMDA plus 10 μM glycine
# Sequence of NR1/NR2A receptors (Q00959 20-1464 limits assumed, other chains not shown): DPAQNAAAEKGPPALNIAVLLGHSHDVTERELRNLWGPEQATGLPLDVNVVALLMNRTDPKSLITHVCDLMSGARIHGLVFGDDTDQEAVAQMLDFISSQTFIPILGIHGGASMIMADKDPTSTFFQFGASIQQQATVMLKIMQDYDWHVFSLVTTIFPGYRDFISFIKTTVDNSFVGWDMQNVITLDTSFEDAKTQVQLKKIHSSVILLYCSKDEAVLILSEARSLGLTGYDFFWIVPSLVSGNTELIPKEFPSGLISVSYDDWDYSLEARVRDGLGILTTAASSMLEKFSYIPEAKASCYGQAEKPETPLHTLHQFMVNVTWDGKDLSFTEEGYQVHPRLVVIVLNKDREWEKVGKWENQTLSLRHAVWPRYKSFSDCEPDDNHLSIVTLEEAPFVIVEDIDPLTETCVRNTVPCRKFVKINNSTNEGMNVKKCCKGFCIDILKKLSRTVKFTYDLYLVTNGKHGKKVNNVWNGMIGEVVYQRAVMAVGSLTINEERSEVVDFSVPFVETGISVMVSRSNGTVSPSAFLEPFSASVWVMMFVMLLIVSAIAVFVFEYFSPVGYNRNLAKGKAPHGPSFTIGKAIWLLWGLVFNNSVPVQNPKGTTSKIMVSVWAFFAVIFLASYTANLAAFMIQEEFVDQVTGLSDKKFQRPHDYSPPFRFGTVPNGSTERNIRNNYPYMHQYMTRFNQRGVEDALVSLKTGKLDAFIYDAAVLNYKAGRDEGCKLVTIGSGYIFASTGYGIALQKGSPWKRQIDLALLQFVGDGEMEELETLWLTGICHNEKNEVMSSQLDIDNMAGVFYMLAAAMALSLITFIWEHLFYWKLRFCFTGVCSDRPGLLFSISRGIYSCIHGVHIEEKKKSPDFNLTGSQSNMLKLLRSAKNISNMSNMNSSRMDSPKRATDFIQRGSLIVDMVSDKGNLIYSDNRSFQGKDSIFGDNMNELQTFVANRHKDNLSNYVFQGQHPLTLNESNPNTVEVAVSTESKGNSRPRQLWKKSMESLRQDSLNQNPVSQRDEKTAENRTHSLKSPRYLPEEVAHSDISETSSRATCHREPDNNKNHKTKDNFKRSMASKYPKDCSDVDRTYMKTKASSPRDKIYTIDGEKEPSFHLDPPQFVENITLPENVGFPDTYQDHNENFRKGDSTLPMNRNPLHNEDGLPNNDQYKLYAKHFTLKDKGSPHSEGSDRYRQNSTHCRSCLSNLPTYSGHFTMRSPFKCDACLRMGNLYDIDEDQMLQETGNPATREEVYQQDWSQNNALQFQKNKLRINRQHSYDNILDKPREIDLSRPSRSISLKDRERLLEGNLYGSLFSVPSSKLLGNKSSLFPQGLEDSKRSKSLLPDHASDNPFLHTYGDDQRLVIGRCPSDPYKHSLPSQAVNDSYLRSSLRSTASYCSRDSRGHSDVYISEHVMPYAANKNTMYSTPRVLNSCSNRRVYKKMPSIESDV
# Description: Microinjection of oocytes and electrophysiological recordings were performed as follows. Physiological and pharmacological properties of NMDA receptor subunits were characterized in the X. laevis oocyte expression system. Full-length cDNAs encoding NMDA receptor subunits were linearized and used as templates for synthesis of cRNA by in vitro transcription using T3 or T7 RNA polymerase (Ambion, Inc., Austin, Tex.). The DNA template was removed by DNase I digestion, and the RNA was purified by phenol/chloroform extraction and ethanol precipitation. The RNA was resuspended in water at 1 μg/μl and stored in −80° C. freezer until use. X. laevis oocytes were harvested and defolliculated by digestion with collagenase (2 mg/ml) for 2 hrs. Twenty to 40 ng of cRNA were injected into each oocyte using glass pipettes with a tip size of 20-40 μm in diameter. […] Micropipettes were filled with 3M KCl. […] Drugs were applied to oocytes via a rapid perfusion system. Data were collected at 2.2 to 11.1 Hz at room temperature using the MacLab/4e A/D converter (AD Instruments, Mountain View, Calif.). Data analysis was performed using the programs Chart (AD Instruments, Mountain View, Calif.) and Microsoft Excel.
# [1] = concentration of compound not given or dose-dependent
# [2] = no glutamate/NMDA, 1.5 mM Ba2+ Ringers' solution
# Sequence of NR1/NR3A receptors (Q9R1M7 24-1135, other chains not shown): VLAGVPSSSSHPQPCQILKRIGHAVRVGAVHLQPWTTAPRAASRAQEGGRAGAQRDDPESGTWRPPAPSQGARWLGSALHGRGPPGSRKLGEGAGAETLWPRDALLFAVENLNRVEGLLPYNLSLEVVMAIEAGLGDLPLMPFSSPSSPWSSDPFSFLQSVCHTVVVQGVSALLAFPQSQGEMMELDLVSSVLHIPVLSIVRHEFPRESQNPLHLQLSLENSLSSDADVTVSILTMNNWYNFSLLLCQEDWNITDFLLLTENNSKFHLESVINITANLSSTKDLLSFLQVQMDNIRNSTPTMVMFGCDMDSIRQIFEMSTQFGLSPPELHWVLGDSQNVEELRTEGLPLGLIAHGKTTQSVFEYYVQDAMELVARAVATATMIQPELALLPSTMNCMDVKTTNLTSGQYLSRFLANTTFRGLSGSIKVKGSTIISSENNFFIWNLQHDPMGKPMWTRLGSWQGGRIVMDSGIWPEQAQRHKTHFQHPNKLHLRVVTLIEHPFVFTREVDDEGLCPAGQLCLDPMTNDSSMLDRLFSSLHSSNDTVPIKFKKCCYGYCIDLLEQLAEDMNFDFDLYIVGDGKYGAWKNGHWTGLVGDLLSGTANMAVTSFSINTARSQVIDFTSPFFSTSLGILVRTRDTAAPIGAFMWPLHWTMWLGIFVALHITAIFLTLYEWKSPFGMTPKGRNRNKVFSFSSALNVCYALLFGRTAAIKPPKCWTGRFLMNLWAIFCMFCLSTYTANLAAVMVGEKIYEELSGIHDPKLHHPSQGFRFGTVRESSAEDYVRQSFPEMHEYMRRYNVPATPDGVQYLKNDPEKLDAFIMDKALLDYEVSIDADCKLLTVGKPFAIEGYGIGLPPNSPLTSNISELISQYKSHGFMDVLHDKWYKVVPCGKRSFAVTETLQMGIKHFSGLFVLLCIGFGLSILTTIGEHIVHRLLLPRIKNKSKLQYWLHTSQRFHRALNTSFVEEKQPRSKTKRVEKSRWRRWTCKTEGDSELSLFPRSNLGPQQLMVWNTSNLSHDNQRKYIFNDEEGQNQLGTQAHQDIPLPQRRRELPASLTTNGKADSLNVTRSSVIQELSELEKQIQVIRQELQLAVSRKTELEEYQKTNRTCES
smiles,measurement,setting,value
"O=C(O)c1cc(=O)c2c(Cl)cc(Cl)cc2[nH]1 [5,7-dichlorokynurenic acid]",effect on glycine-evoked NR1/NR3A currents,"NR1/NR3A receptors; listed as 5, 7-di-Cl-Kynurenate",effectively blocked
same,effect on glycine-evoked NR1/NR3A currents,"NR1/NR3A receptors; listed as 5,7-dichlorokynurenate",blocked
same,effect on glycine-evoked NR1/NR3B currents,NR1/NR3B receptors; [1],completely inhibits
same,effect on glycine-evoked NR1/NR3B currents,"NR1/NR3B receptors; concentration of compound not given or dose-dependent, listed as 5, 7-di-Cl-Kynurenate",blocks
same,effect on glycine-evoked NR1/NR3B currents,"NR1/NR3B receptors; concentration of compound not given or dose-dependent, listed as 5,7-dichlorokynurenate",completely abolished
NC1(C(=O)O)CC1 [ACPC],NR1/NR2A currents on co-application with NMDA (co-agonist activity),NR1/NR2A receptors; co-applied with 100 μM NMDA,evokes NR1/NR2A currents
same,effect on glycine-evoked NR1/NR3B currents on co-application,NR1/NR3B receptors; 10 μM glycine,produces relative inhibition
same,effect on glycine-evoked NR1/NR3B currents,NR1/NR3B receptors; [1],inhibited
same,NR1/NR3B current evoked by compound applied alone,NR1/NR3B receptors; [2],does not evoke detectable NR1/NR3B currents
"NC(CCCP(=O)(O)O)C(=O)O (stereo not shown) [APV, 2-amino-5-phosphonovalerate]",effect on NR1/NR2A currents,NR1/NR2A receptors; compound 10 μM,blocks
same,effect on glycine-evoked NR1/NR3A currents,NR1/NR3A receptors,blocked the current only slightly
same,effect on glycine-evoked NR1/NR3B currents,NR1/NR3B receptors,little or no effect; also recorded: has little effect
same,effect on glycine-induced NR1/NR3B current,NR1/NR3B receptors,"actually potentiated glycine-evoked current somewhat; also recorded: did not block the glycine-induced current, and actually potentiated the current"
N[C@H](CO)C(=O)O [D-serine],effect on glycine-evoked NR1/NR3A currents,NR1/NR3A receptors,effectively blocked
same,effect on glycine-evoked NR1/NR3B currents on co-application,NR1/NR3B receptors; 10 μM glycine,produces relative inhibition
same,effect on glycine-evoked NR1/NR3B currents,NR1/NR3B receptors; [1],dose-dependently inhibits currents; also recorded: inhibited; also recorded: inhibits glycine-evoked responses in a dose-dependent fashion
same,NR1/NR3B current evoked by compound applied alone,NR1/NR3B receptors; [2],evokes small NR1/NR3B currents alone
N[C@@H](CS)C(=O)O [L-cysteine],effect on NR1/NR3B currents evoked by glycine,"NR1/NR3B receptors; compound 50 μM, 5 μM glycine",have little effect or only slightly potentiate the current
same,effect on glycine-evoked NR1/NR3B currents,NR1/NR3B receptors; [1],slightly potentiated
C[C@]12N[C@H](Cc3ccccc31)c1ccccc12 [MK801],effect on NR1/NR2A currents,NR1/NR2A receptors; compound 10 μM,complete blockade
same,effect on glycine-evoked NR1/NR3A currents,NR1/NR3A receptors,"not only failed to block glycine-evoked currents of NR1/NR3A receptors, but actually potentiated these currents; also recorded: potentiates"
same,effect on glycine-evoked NR1/NR3B currents,NR1/NR3B receptors,does not block and in fact appears to slightly potentiate
same,sensitivity of NR1/NR3B receptors to channel blocker compared to NR1/NR2A (NR2-containing) receptors,NR1/NR3B receptors,drastically less sensitive
CC12CC3CC(C)(C1)CC(N)(C3)C2 [Memantine],effect on NR1/NR2A currents,NR1/NR2A receptors; compound 12 μM,completely blocks
[Mg+2] [Mg^2+],effect on NR1/NR2A currents,NR1/NR2A receptors; compound 0.1 mM,inhibition
same,effect on glycine-evoked NR1/NR3A currents,NR1/NR3A receptors,no inhibitory effect
same,effect on glycine-evoked NR1/NR3A currents,NR1/NR3A receptors; higher glycine levels,potentiates peak currents without affecting the steady state current
same,effect on glycine-evoked NR1/NR3A currents,NR1/NR3A receptors; low glycine levels,"not only failed to block glycine-evoked currents of NR1/NR3A receptors, but actually potentiated these currents; also recorded: actually potentiates"
same,sensitivity of NR1/NR3B receptors to channel blocker compared to NR1/NR2A (NR2-containing) receptors,NR1/NR3B receptors; comparison with NR2 subunit-containing receptors,drastically less sensitive; also recorded: much less potently
same,effect on glycine-induced NR1/NR3B current,"NR1/NR3B receptors; compound 0.5 mM, 10 μM glycine, holding potential −60 mV",had no effect
same,effect on glycine-evoked NR1/NR3B currents,NR1/NR3B receptors; [1],weakly inhibits
"CN[C@H](CC(=O)O)C(=O)O [NMDA, N-methyl-D-aspartate]",NR1/NR3B current evoked by compound applied alone,NR1/NR3B receptors,little or no effect
same,effect on glycine-evoked NR1/NR3B currents,NR1/NR3B receptors,little or no effect; also recorded: does not potentiate
N[C@@H](CCC(=O)O)C(=O)O [glutamate],effect on NR1/NR3B currents evoked by glycine,NR1/NR3B receptors,have little effect or only slightly potentiate the current
